Assays:
rabbit corneas = assay: Wound closure of rabbit corneas wounded with ethanol or N-heptanol combined with mechanical debridement; assay type: in vivo, New Zealand white rabbits; conditions: C646 10 μM applied 3-times/day to the eye, vs DMSO, n=4
Text: FIGS. 6A and 6B illustrate the impact of C646 on rabbit corneas wounded with either ethanol or N-heptanol combined to mechanical debridement. Rabbit corneas were wounded with ethanol (70%) or N-heptanol (100%) and mechanically debrided with a scalpel blade (crescent type). The rabbits were then divided into two groups: control corneas treated with DMSO or corneas treated with C646 (10 μm). n=4 for each conditions tested. (A) Fluorescein staining of corneas surgically wounded using either ethanol or N-heptanol combined with debridement using a crescent blade and treated with 10 μM C646. Wounded eyes were photographed using a slit lamp. (B) Graph representation of the remaining wounded corneal area (%) for each condition used in (A).
FIGS. 7A and 7B illustrate the impact of C646+SC79 on wounded rabbit corneas combined to mechanical debridement. Rabbit corneas were wounded with ethanol (70%) and mechanically debrided with a scalpel blade (crescent type). The rabbits were then divided into five groups: control corneas treated with DMSO, corneas treated with C646 (1 μM) and SC-79 (1 μM), corneas treated with C646 (1 μM) and SC-79 (10 μM), corneas treated with C646 (1 μM) and SC-79 (100 μM) and corneas treated with C646 (1 μm) and SC-79 (1 mM). n=4 for DMSO and n=5 for each remaining conditions tested. […]

[1] = system: tissue-engineered human corneas; assay: Wound closure of punch-wounded tissue-engineered human corneas; assay type: cell-based; conditions: 8-mm punch wound; compounds in culture medium at 2x reported IC50 (GDC-0068 36 nM; C646 800 nM; SC79 10 μM along with C646 800 nM); monitored over 4 days; n=4
Procedure: FIGS. 5A to 5C illustrate the pharmacological alteration of Akt and CREB on wound closure dynamic. (A) Left panel: Tissue-engineered human corneas (TEC) (four reconstructed corneas per condition) were wounded as in FIG. 2 and then maintained in culture medium supplemented with […] (36 nM, thin line), a pharmacological inhibitor of Akt phosphorylation, and C646 (800 nM, broken line), an inhibitor of CREB phosphorylation. Wounded corneas used as controls were exposed solely to the vehicle (DMSO, thick line). Wound closure was monitored over a 4-day period. Right panel: Measurement of wound surface remaining at each day using the ImageJ64 software (n=4). (B) Left panel: TECs were wounded as in (A) and maintained in culture medium containing C646 (800 nM) along with the AKT agonist SC79 (10 μM) (thin line) or DMSO (broken line). Wound closure was monitored as in (A). Right panel: Measurement of wound surface remaining at each day using the ImageJ64 software (n=4). (C) Composite image showing a complete view of the wounded TECs exposed either to the vehicle (DMSO) or pharmacological compounds (C646, GDC0068 or the combination of C646 and SC79) 4 days following corneal damage (sections were stained with Masson's trichrome; cells are pink and collagen is bluish). The wound margin created by the biopsy punch is indicated.
The tissue-engineered, two-layers 3D human corneas that have been used as a biomaterial were produced following the self-assembly approach (see FIG. 1). Briefly, corneal fibroblasts were seeded and cultured in fibroblast growth medium supplemented with 50 μg/ml ascorbic acid (Sigma, Oakville, Ont., Canada) for 35 days. Ascorbic acid allows fibroblasts to secrete and lay down their own ECM. After peeling from the flasks, two tissue sheets were superimposed to form a reconstructed stroma and were cultured for another week so that they could adhere to each other. […]
The wound healing of in vitro reconstructed cornea was studied. […] Wound healing was monitored daily with microphotographs. […]

mouse model of stroke = conditions: cited from earlier work
Akt = conditions: cell based assays; cited from earlier work

Compound | wound closing time (rabbit corneas; ethanol (70%) injury combined with mechanical debridement) | wound closure (rabbit corneas; n-heptanol (100%) injury combined with mechanical debridement) | wound closure when compared to control (DMSO) [1] | neuronal death (mouse model of stroke) | cytosolic Akt signaling (Akt)
CC1=NN(c2ccc(C(=O)O)cc2)C(=O)C1=Cc1ccc(-c2cc(C)c(C)cc2[N+](=O)[O-])o1 [C646, 4-[4-[[5-(4,5-Dimethyl-2-nitrophenyl)-2-furanyl]methylene]-4,5-dihydro-3-methyl-5-oxo-1H-pyrazol-1-yl]benzoic acid] | clear reduction in the wound closing time | no significant impact on wound closure | accelerated wound closure | – | –
CC(C)NC[C@@H](C(=O)N1CCN(c2ncnc3c2[C@H](C)C[C@H]3O)CC1)c1ccc(Cl)cc1 [GDC-0068] | – | – | delayed wound closure | – | –
CCOC(=O)C1=C(N)Oc2ccc(Cl)cc2C1C(C#N)C(=O)OCC (stereo not shown) [SC-79, Ethyl-2-amino-6-chloro-4-(1-cyano-2-ethoxy-2-oxoethyl)-4H-chromene-3-carboxylate] | – | – | accelerated wound closure | prevents neuronal death | induces cytosolic Akt signaling

Source: patent US10537547B2, “Compositions favoring wound repair” (UNIVERSITÉ LAVAL, priority 2015, dated 2020)
